Values of other authors as cited in paper PMC7709506 (ESMO Open, 2020).

Conditions: patients, phase I/II trial; cited from earlier work

CNC(=O)c1cccc2cc(Oc3ccnc4cc(OCC5(N)CC5)c(OC)cc34)ccc12 [lucitanib]
Hypertension: 91%
grade 3 hypertension events: 57%
